Experimental data as given in patent publication US20070185118A1, “Use of methylene amide derivatives in cardiovascular disorders” (APPLIED RESEARCH SYSTEMS ARS HOLDING N.V., priority 2004, published 2007).

Legend:
[1] = tested on: mesenteric arteries of mice with chronic heart failure; test: Flow-mediated dilatation of isolated mesenteric arteries from mice with chronic heart failure (coronary artery occlusion model); format: cell-based, C57BL6 mice; details: CHF mouse arteries, in-vitro incubation 30 min, preconstriction by phenylephrine
Source text: Experimentally, flow-induced release of NO in small peripheral arteries (i.e. arteries that contribute to the increased resistance in heart failure) may be assessed in vitro in isolated perfused, pressurized arteries such as small (<300 μm diameter) mesenteric or hindquarter arteries.
Chronic heart failure is induced in C57BL6 mice (n=12) by coronary ligation according to the model developed in rats by Varin et al,1999, Circulation, 99, 2951-2957.
Mice are anesthetized, ventilated and a thoracotomy (incision of the pleural cavity) is performed. The left main coronary artery is ligated close to its origin. This procedure leads to the development of an infarct involving around 40% of the left ventricle. Post-infarction mortality in this mouse model is around 40-50%.
The development of heart failure is assessed by echocardiography in the closed chest state 7 days and 2 months after coronary ligation. Sham-operated (normal) mice are subjected to the same protocol except that the artery is not be ligated. […]
(§1) Flow-mediated vasodilatation (FMD), i.e. changes in vessel diameter in response to stepwise increases in intra-luminal flow (0-200 μl/min) is evaluated after preconstriction by phenylephrine (incubated 2min at 10^-5 M) after a contraction plateau is reached, at baseline and after incubation with a compound of the invention: […]

[2] = tested on: mesenteric arteries of normal mice; test: Flow-mediated dilatation of isolated mesenteric arteries from normal (sham-operated) mice; format: cell-based, C57BL6 mice; details: 10^-5 M, compared with the roughly abolished response in CHF arteries (FIG. 1)
Description: The flow-mediated dilatation response in a normal mouse (open circles) is compared to the flow-mediated dilatation response of mesenteric arteries in either normal mouse subjected to an inhibitor of NO synthesis (left, black circles) or in a mouse wherein chronic heart failure (CHF) has been induced as described in Example 1 (right, black circles).
The development of heart failure is assessed by echocardiography in the closed chest state 7 days and 2 months after coronary ligation. Sham-operated (normal) mice are subjected to the same protocol except that the artery is not be ligated. Six mice are present in each group and mice that survived myocardial infarction are further used in the study.
After two months, the mice is anesthetized and subjected to laparotomy (incision into the abdominal cavity).
A portion of the mesenteric artery (diameter 250-350 μm) is carefully isolated under a dissection microscope, and a 1.5to 2.0-mm length segment is cannulated on both ends, transferred to an arteriograph (Living Systems Instrumentation) and pressurized to 60 mm Hg.
as §1

Row | SMILES | flow-mediated dilatation (% dilatation) restoration ([1]; 10^-5 M in Krebs buffer, flow 0-200 μl/min (FIG. 2 left)) | flow-mediated dilatation (% dilatation) restoration ([1]; 10^-6 M in Krebs buffer, flow 0-200 μl/min (FIG. 2 right)) | inhibition of the flow-mediated dilatation response [2]
1 | CCCCCCc1ccc(C#Cc2ccc(CN(Cc3ccc(C(F)(F)F)cc3)C(=O)C(=O)O)cc2)cc1 [Compound 1, {{4-[(4-hexylphenyl)ethynyl]benzyl}[4-(trifluoromethyl)benzyl]amino}(oxo)acetic acid] | restored to the normal level | restored to the normal level | 
2 | N=C(NCCC[C@H](N)C(=O)O)N[N+](=O)[O-] [NG-nitro-L-arginine] |  |  | inhibition of the dilatation response is similar
